# Measurements as given in patent US20230125429A1 (priority 2017, published 2023).
# Values joined by “and” are separate entries in the source; they are usually repeats but may differ in a detail not shown here. Equal values may be shown once. “Also recorded” adds a separate entry of the source.
# Assays:
# [1] = test system: ACHN; test: Growth inhibitory effect, one hour exposure (IncuCyte Zoom); type: cell-based, human; details: Renal
# Method: (§1) Cancer cell lines and immortalized human cell lines were cultured in 1640 tissue culture medium (Corning, USA) with 10% fetal bovine serum in a standard tissue culture condition of 37° C. and 5% CO2.
# (§2) For primary hepatocytes, the seeded cells were monitored for up to 48 hours either without any treatment (as a control) or with various types of treatments. For primary keratinocytes, cells in 48-well plates were monitored either without any treatment or with various types of treatment for up to 96 hours. For HepG2, cells 96-well plates were monitored either without any treatment or with various types of treatments for up to 48 hours. The IncuCyte Zoom was set to take a set of images at fixed locations (4 per well for 96-well plates and 16 per well for 48-well plates and 12-well plates) every three hours.
# (§3) The one-hour exposure is intended to simulate the transient high concentrations within the liver as the results of either the first pass effects of some orally administered drugs, or of locally delivered drugs, anticipating that such a short term exposure is nevertheless sufficient to affect certain cell surface receptors without causing any significant off-target effects due to intracellular absorption. Such a strategy would also reduce false hits due to reversible cell cycle arrests.
# (§4) To address this possibility, we investigated whether other cell lines, including other HCC cell lines, cell lines from other type of cancers, as well as non-cancer immortalized/transformed cell lines, were also sensitive to Triptonide. Specifically, a total of 51 human cancer cell lines, representing 10 types of human cancers (6 non-small cell lung cancer cell lines, 5 colon cancer cell lines, 5 central nerve system cancer cell lines, 8 Melanomas cell lines, 4 ovarian cancer cell lines, 4 renal cancer cell lines, 2 prostate cancer cell lines, 3 breast cancer cell lines, 7 hepatocellular carcinoma cell lines, and 4 gastric cancer cell lines) were analyzed.
# [2] = test system: CAKI-1; test: as above; type: cell-based, human; details: CAKI-1, Renal
# Method: as §1, §2, §3, §4
# [3] = test system: HCC-2998; test: as above; type: cell-based, human; details: HCC-2998, Colon
# Method: as §1, §2, §3, §4
# [4] = test system: HCT-116; test: as above; type: cell-based, human; details: HCT-116, Colon
# Method: as §1, §2, §3, §4
# [5] = test system: HOP-62; test: as above; type: cell-based, human; details: HOP-62, Non-Small Cell Lung
# Method: as §1, §2, §3, §4
# [6] = test system: HS 578T; test: as above; type: cell-based, human; details: Breast
# Method: as §1, §2, §3, §4
# [7] = test system: HT29; test: as above; type: cell-based, human; details: HT29, Colon
# Method: as §1, §2, §3, §4
# [8] = test system: Hep3B; test: as above; type: cell-based, human; details: Hepatocellular carcinoma
# Method: as §1, §2, §3, §4
# [9] = test system: HepG2; test: as above; type: cell-based, human
# Method: as §1, §2, §3, §4
# [10] = test system: Huh7; test: as above; type: cell-based, human; details: Huh7, Hepatocelular carcinoma
# Method: as §1, §2, §3, §4
# [11] = test system: IGR-OV1; test: as above; type: cell-based, human; details: IGR-OV1, Ovarian
# Method: as §1, §2, §3, §4
# [12] = test system: LM9; test: as above; type: cell-based, human; details: LM9, Hepatocellular carcinoma
# Method: as §1, §2, §3, §4
# [13] = test system: LOX IMV1; test: as above; type: cell-based, human; details: LOX IMV1, Melanoma
# Method: as §1, §2, §3, §4
# [14] = test system: M14; test: as above; type: cell-based, human; details: M14, Melanoma
# Method: as §1, §2, §3, §4
# [15] = test system: MALME-3M; test: as above; type: cell-based, human; details: Melanoma
# Method: as §1, §2, §3, §4
# [16] = test system: MCP7; test: as above; type: cell-based, human; details: MCP7, Breast
# Method: as §1, §2, §3, §4
# [17] = test system: NCI/ADR-RES; test: as above; type: cell-based, human; details: Ovarian
# Method: as §1, §2, §3, §4
# [18] = test system: OVCAR-3; test: as above; type: cell-based, human; details: OVCAR-3, Ovarian
# Method: as §1, §2, §3, §4
# [19] = test system: OVCAR-4; test: as above; type: cell-based, human; details: OVCAR-4, Ovarian
# Method: as §1, §2, §3, §4
# [20] = test system: OVCAR-5; test: as above; type: cell-based, human; details: OVCAR-5, Ovarian
# Method: as §1, §2, §3, §4
# [21] = test system: OVCAR-8; test: as above; type: cell-based, human; details: OVCAR-8, Ovarian
# Method: as §1, §2, §3, §4
# [22] = test system: PC-3; test: as above; type: cell-based, human; details: PC-3, Prostate
# Method: as §1, §2, §3, §4
# [23] = test system: SF-268; test: as above; type: cell-based, human; details: SF-268, CNS
# Method: as §1, §2, §3, §4
# [24] = test system: SF-539; test: as above; type: cell-based, human; details: SF-539, CNS
# Method: as §1, §2, §3, §4
# [25] = test system: SGC7901; test: as above; type: cell-based, human; details: SGC7901, Gastric cancer
# Method: as §1, §2, §3, §4
# [26] = test system: SK-MEL-2; test: as above; type: cell-based, human; details: SK-MEL-2, Melanoma
# Method: as §1, §2, §3, §4
# [27] = test system: SNB-19; test: as above; type: cell-based, human; details: SNB-19, CNS
# Method: as §1, §2, §3, §4
# [28] = test system: SNU-449; test: as above; type: cell-based, human; details: SNU-449, Hepatocellular carcinoma
# Method: as §1, §2, §3, §4
# [29] = test system: SW-620; test: as above; type: cell-based, human; details: SW-620, Colon
# Method: as §1, §2, §3, §4
# [30] = test system: T-47D; test: as above; type: cell-based, human; details: Breast
# Method: as §1, §2, §3, §4
# [31] = test system: U251; test: as above; type: cell-based, human; details: U251, CNS
# Method: as §1, §2, §3, §4
# [32] = test system: wild-type keratinocytes; test: Growth of wild-type primary keratinocytes, short-term treatment; type: cell-based, mouse
# [33] = test system: ERK phosphorylation; test: ERK phosphorylation in HepG2 cells (Western blot); type: cell-based, human; details: serum-starved HepG2; trypsin 50 nM, Triptolide 1 µM, Triptonide 1 µM; 0-40 minutes
# [34] = test system: PKA; test: Measurement of PKA activity in HepG2 cells; type: cell-based, human
structure (smiles),measurement,setting,value
CC(C)[C@]12O[C@H]1[C@@H]1O[C@@]13[C@@]1(C)CCC4=C(COC4=O)[C@@H]1C[C@@H]1O[C@@]13C2=O [Triptonide],IC50,[1],15 µM
same,IC50,[2],6.15 µM
same,IC50,[3],2.77 µM
same,IC50,[4],2.57 µM
same,IC50,[5],9.23 µM
same,IC50,[6],1.86 µM
same,IC50,[7],1.7 µM
same,IC50,[8],1.28 µM
same,effect on growth of HepG2,[9]; 4 µM or higher for one hour,significant growth inhibition
same,effect on cell density of HepG2,"[9]; 16 µM and above, one hour",apparent reduction in cell density
same,IC50,"[9]; HepG2, Hepatocellular carcinoma, one hour exposure",7.5 µM and 7.51 µM
same,IC50,[10],1.75 µM
same,IC50,[11],4.66 µM
same,IC50,[12],4.24 µM
same,IC50,[13],1.77 µM
same,IC50,[14],4.93 µM
same,IC50,[15],3.44 µM
same,IC50,[16],0.592 µM
same,IC50,[17],8.34 µM
same,IC50,[18],4.9 µM
same,IC50,[19],1.54 µM
same,IC50,[20],8.23 µM
same,IC50,[21],7.29 µM
same,IC50,[22],6.71 µM
same,IC50,[23],11.8 µM
same,IC50,[24],1.14 µM
same,IC50,[25],12 µM
same,IC50,[26],0.608 µM
same,IC50,[27],51 µM
same,IC50,[28],4.92 µM
same,IC50,[29],11.6 µM
same,IC50,[30],1.81 µM
same,IC50,[31],43.2 µM
same,IC50,[32],1.29 µM
same,effect on growth of wild-type keratinocytes,[32],effective in inhibiting the growth; also recorded: complete growth inhibition; also recorded: significant growth suppressive effect
same,levels of phosphorylated ERK,[33],only an acute transient increase
same,"levels of PKA activities, acute","[34]; 1 µM, serum free, first 30 minutes after treatment",two-wave elevation
same,level of PKA activity around G2/M transition,"[34]; one-hour treatment in regular medium (Trypsin 50 nM, Triptonide 1 µM), hour 9 and 10 after mimosine",remained largely unchanged
